Reference: the supplement of paper PMC11061612

Tests used:
Assay in all cases: combination Emax (second highest fraction inhibited in the dose matrix, 72 h); higher = more inhibition; extreme values may be limits of the assay
[1] = tested on: TC-71 (Ewing's Sarcoma)
Summary of the method: (§1)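 Cell lines grown in DMEM/F12 or RPMI with 10% FBS were plated in 1536-well plates and held 24 hours at 37°C, 5% CO2 before 72 hours of exposure to two-drug dose matrices, with DMSO typically at 0.2%. CellTiter-Glo 2.0 luminescence gave viability, which was converted to inhibition. Vehicle wells were set to 0 and blank wells to 1. Combination Emax is the second-highest inhibition in the matrix, and Bliss excess is the observed combination effect minus the expected EA + EB − EA·EB, where EA and EB are the single-agent effects.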

[2] = tested on: TE-6 (Esophageal Squamous Cell Carcinoma)
Summary of the method: as §1

[3] = tested on: U251 (Low Grade Glioma)
Summary of the method: as §1

[4] = tested on: P12-ICHIKAWA (T-Lymphoblastic Leukemia)
Summary of the method: as §1

[5] = tested on: MEL-JUSO (Melanoma)
Summary of the method: as §1

[6] = tested on: MKN28 (Gastric Carcinoma)
Summary of the method: as §1

[7] = tested on: KYSE-180 (Esophageal Squamous Cell Carcinoma)
Summary of the method: as §1

[8] = tested on: GR-ST (B-Lymphoblastic Leukemia)
Summary of the method: as §1

[9] = tested on: ES1 (Ewing's Sarcoma)
Summary of the method: as §1

[10] = tested on: SW837 (Colorectal Carcinoma)
Summary of the method: as §1

[11] = tested on: ES8 (Ewing's Sarcoma)
Summary of the method: as §1

[12] = tested on: NCI-H2818 (Mesothelioma)
Summary of the method: as §1

[13] = tested on: K-562 (Chronic Myelogenous Leukemia)
Summary of the method: as §1

[14] = tested on: WIL2-NS (Non-Cancerous)
Summary of the method: as §1

[15] = tested on: LN-18 (Glioblastoma)
Summary of the method: as §1

[16] = tested on: DiFi (Colorectal Carcinoma)
Summary of the method: as §1

[17] = tested on: WM-115 (Melanoma)
Summary of the method: as §1

[18] = tested on: EVSA-T (Breast Carcinoma)
Summary of the method: as §1

[19] = tested on: HDQ-P1 (Breast Carcinoma)
Summary of the method: as §1

| SMILES | combination Emax [1] | combination Emax [2] | combination Emax [3] | combination Emax [4] | combination Emax [5] | combination Emax [6] | combination Emax [7] | combination Emax [8] | combination Emax [9] | combination Emax [10] | combination Emax [11] | combination Emax [12] | combination Emax [13] | combination Emax [14] | combination Emax [15] | combination Emax [16] | combination Emax [17] | combination Emax [18] | combination Emax [19] |
| --- | --- | --- | --- | --- | --- | --- | --- | --- | --- | --- | --- | --- | --- | --- | --- | --- | --- | --- | --- |
| COc1nnc2ccc(N3CCC(c4ccc(OCCN5CCN(C)C(=O)[C@H]5C)cc4)CC3)nn12 [AZD5153] + C=CCn1c(=O)c2cnc(Nc3ccc(N4CCN(C)CC4)cc3)nc2n1-c1cccc(C(C)(C)O)n1 [AZD1775] (first compound max 1 µM, partner max 1 µM) | 0.935 | 0.731 | 0.799 | 1 | 0.491 | 0.525 | 0.742 | 0.832 | 0.686 | 0.715 | 0.779 | 0.327 | 0.616 | 0.878 | 0.649 | 0.727 | 0.338 | 0.942 | 0.523 |
| COc1nnc2ccc(N3CCC(c4ccc(OCCN5CCN(C)C(=O)[C@H]5C)cc4)CC3)nn12 [AZD5153] + CC1(C)CCC(CN2CCN(c3ccc(C(=O)NS(=O)(=O)c4ccc(NCC5CCOCC5)c([N+](=O)[O-])c4)c(Oc4cnc5[nH]ccc5c4)c3)CC2)=C(c2ccc(Cl)cc2)C1 [Venetoclax] (first compound max 1 µM, 7x7, partner max 1 µM) | 0.657 | 0.572 | 0.449 | 0.932 | 0.215 | 0.446 | 0.293 | 0.788 | 0.482 | 0.551 | 0.719 | 0.268 | 0.437 | 0.807 | 0.638 | 0.586 | 0.365 | 0.938 | 0.325 |
| COc1nnc2ccc(N3CCC(c4ccc(OCCN5CCN(C)C(=O)[C@H]5C)cc4)CC3)nn12 [AZD5153] + CCN(CCO)CCCOc1ccc2c(Nc3cc(CC(=O)Nc4cccc(F)c4)[nH]n3)ncnc2c1 [AZD2811] (first compound max 1 µM, 7x7, partner max 1 µM) | 0.884 | 0.632 | 0.661 | 1 | 0.37 | 0.43 | 0.397 | 0.818 | 0.612 | 0.57 | 0.994 | 0.292 | 0.517 | 0.811 | 0.632 | 0.667 | 0.37 | 0.938 | 0.431 |
| COc1nnc2ccc(N3CCC(c4ccc(OCCN5CCN(C)C(=O)[C@H]5C)cc4)CC3)nn12 [AZD5153] + CN(CC[C@H](CSC1=CC=CC=C1)NC2=C(C=C(C=C2)S(=O)(=O)NC(=O)C3=CC=C(C=C3)N4CCC(CC4)[C@H](C5=CC=CC=C5C6=CC=C(C=C6)Cl)O)S(=O)(=O)C(F)(F)F)CCO [AZD4320] (first compound max 1 µM, 7x7, partner max 1 µM) | 0.814 | 0.81 | 0.505 | 1 | 0.3 | – | 0.326 | – | – | – | – | – | – | – | 0.605 | 0.818 | – | 0.938 | 0.967 |
| COc1nnc2ccc(N3CCC(c4ccc(OCCN5CCN(C)C(=O)[C@H]5C)cc4)CC3)nn12 [AZD5153] + C[C@@H]1COCCN1C2=NC(=NC(=C2)C3(CC3)[S@](=N)(=O)C)C4=C5C=CNC5=NC=C4 [AZD6738] (first compound max 1 µM, 7x7, partner max 10 µM) | 0.997 | 0.79 | 0.836 | 1 | 0.502 | 0.51 | 0.591 | 0.846 | 0.918 | 0.756 | 0.907 | 0.281 | 0.821 | 0.935 | 0.815 | 0.844 | 0.481 | 0.977 | 0.571 |
| COc1nnc2ccc(N3CCC(c4ccc(OCCN5CCN(C)C(=O)[C@H]5C)cc4)CC3)nn12 [AZD5153] + Cc1c2c(nn1C)CSCc1cc(n(C)n1)CSc1cc(c3ccccc3c1)OCCCc1c(C(=O)O)n(C)c3c-2c(Cl)ccc13 [AZD5991] (first compound max 1 µM, 7x7, partner max 1 µM) | 0.996 | 0.77 | 0.65 | 1 | 0.306 | 0.462 | 0.513 | 0.798 | 0.955 | 0.571 | 0.891 | 0.441 | 0.5 | 0.849 | 0.616 | 0.768 | 0.707 | 1 | 0.412 |
